The source of these data is US8173133B2, “Acyl pseudodipeptides which carry a functionalized auxiliary arm” (OM Pharma, priority 1999, dated 2012).

For one test, the system named is bone marrow stem cells. Briefly: bone marrow stem cell proliferation (XTT). It counts as cell-based, C57/BL6 mice. The conditions noted are these: for Max amplitude: 7 days, XTT 492 nm; for Min amplitude: blank ± 3× standard deviation; for Max concentration: concentration at maximum amplitude; for EC50 conc: concentration corresponding to 50% of maximum amplitude; for Min concentration: lowest concentration inducing a significant proliferation. The text has this: 6-week old male C57/BL6 mice are killed by CO2 inhalation. The hip, femur, tibia and hind leg bones are removed. The marrow is extracted from the bone lumen by injecting Dulbecco's Modified Eagle Medium (DH medium) from the end portions which had been excised. The stem cells are washed and suspended again in DH medium supplemented with 20% foetal calf serum (FCS) The cell concentration is adjusted to 500000 cells/ml.
Products previously dissolved in DH medium supplemented with 20% FCS, amino acids and antibiotics are serially diluted directly into a microtiter plate. The products are tested in triplicate and each microtiter plate includes a negative control containing plain medium. The final volume in each well is 100 μl.
100 μl of the cell suspension are added to diluted solutions of products and the cells are incubated for 7 days in an incubator at 37° C., under 8% CO2 and a moisture saturated atmosphere. Cell proliferation is determined by measuring the […] of a chromogenic substrate XTT (2,3-bis[2-methoxy-4-nitro-5-sulphophenyl]-2H-tetrazolium-5-carboxanilide) in mitochondria of viable cells.
At the end of the incubation period, 50 μl of the XTT substrate solution (1 mg/ml XTT+0.008 mg/ml phenazine methosulfate) are added to each well. After an 8 hour incubation period at 37° C. under 8% CO2 in a moisture saturated incubator, the microtiter plates are read with a spectrophotometer at 492 nm against a reference sample at 690 nm.
Results are expressed as mean value±standard deviation and plotted as a dose versus response curve. Values for a negative control composed of DH medium (mean±standard deviation) are also graphically shown.
From this dose versus response curve, 3 curve variables are computed:
Max: maximum curve amplitude and corresponding concentration
EC50: concentration corresponding to 50% of maximum amplitude
Min: lowest concentration inducing a significant proliferation corresponding to the blank±3× standard deviation value
Concentration values corresponding to EC50 and Min are determined from line segments joining different points on the curve.
If the curve has no plateau phase but an ascending configuration for the highest concentration being tested, a “>” sign is shown before Max and EC50 values.

Test [1] deals with human peripheral blood mononuclear cells. In words: α TNF production by human peripheral blood mononuclear cells. It counts as cell-based. As to conditions: for α TNF produced: 18 hours. On the procedure:
Mononuclear cells of peripheral blood are recovered from buffy coats of 6 healthy donors. Such buffy coat cells are resuspended and mononuclear cells are isolated by centrifugation on a Ficoll-Paque gradient (Amersham Pharmacia). Purified mononuclear cells are resuspended into RPMI-1640 medium supplemented with 10% FCS, antibiotics, mercaptoethanol and L-glutamine. Cell concentration is adjusted to 2×10^6 viable cells/ml
100 μl of each one of these solutions of acyl dipeptide-like compounds bearing an accessory functional side chain spacer, diluted 100-, 10- or 1-fold in RPMI medium 1640, are dispensed into a microtiter plate. Samples are tested in triplicates, and each microtiter plate includes a negative control made up of plain medium. Dilutions of E. coli LPS (ranging grom 1 to 0.00001 μg/ml) are used as a positive control.
100 μl of the cell suspension are added to each well containing product dilute solutions or control. Cells are incubated with the products for 18 hours in an incubator at 37° C., under 5% CO2 and a moisture saturated atmosphere.
At the end of the incubation period, microtiter plates are centrifuged, and the supernatant fluids are pooled and frozen at −80° C. as aliquots until time of ELISA assay.
Concentration of α TNF secreted by mononuclear cells is determined by chemiluminescent ELISA (QuantiGlo #QTAOO R&D kit). 4-fold supernatant fluid dilutions are dispensed into each well of the microtiter plate to which anti-αTNF antibodies are bound. The microtiter plate is incubated for 4 hours at room temperature. After washing, peroxidase-conjugated anti-human a TNF antibody is added. Following a 2 hour incubation period and thorough washing, a chemiluminescent substrate is added and chemilunescence is read after 20 minutes. α TNF content in the supernatant fluid is determined with respect to a standard curve covering the 7000 to 0.7 pg/ml range.
Results are expressed in pg/ml of α TNF produced. Results derive from an experiment representative of acyl-dipeptide-like compound activity

Test [2] shares this test system. Briefly: inhibition of E. coli LPS-induced α TNF production in human peripheral blood mononuclear cells. It counts as cell-based. As to conditions: product 10 μg/ml; for 50% inhibition LPS: LPS concentration at which α TNF production is 50% of control; for max. Inhibition LPS: LPS concentration corresponding to maximum inhibition. On the procedure: Mononuclear cells of peripheral blood are recovered from buffy coats of 6 healthy donors. Such buffy coat cells are resuspended and mononuclear cells are isolated by centrifugation on a Ficoll-Paque gradient (Amersham Pharmacia). Purified mononuclear cells are resuspended into RPMI-1640 medium supplemented with 10% FCS, antibiotics, mercaptoethanol and L-glutamine. Cell concentration is adjusted to 2×10^6 viable cells/ml.
Product mediated Inhibition is determined by preincubating those products with mononuclear cells, and adding, 1 hour later, serially diluted solutions of LPS capable of inducing α TFN production. […] E. coli LPS is serially diluted (10-fold dilution) to be in the range of 1 to 0.00001 μg/ml
50 μl of 10 μg/ml dilute product solutions in RPMI 1640 medium are dispensed into a microtiter plate. Each assay (10 μg/ml product concentration+dilute E. coli LPS) is run in triplicates and each microtiter plate includes a negative control comprised of plain medium. LPS-induced α TNF production (without inhibitor) is determined by adding E. coli LPS dilutions to RPMI medium.
100 μl of the cell suspension are added to each well containing dilutions of either product or control. Cells are incubated with the products for 1 hour in an incubator at 37° C., under 5% CO2 and a moisture saturated atmosphere.
At the end of the pre-incubation period, 50 μl of serially diluted solutions of E. coli LPS are added. Incubation of mononuclear cells with the product and LPS is extended for 18 hours. At the end of the cell activation period, the microtiter plates are centrifuged, and the supernatants are pooled and frozen at −80° C. as aliquots until time of ELISA assay.
Concentration of αTNF secreted by mononuclear cells is determined by chemiluminescent ELISA (QuantiGlo #QTAOO R&D kit). 4-fold dilutions of supernatant fluid are dispensed into each well of the microtiter plate to which anti-human αTNF antibodies are bound. The microtiter plate is incubated for 4 hours at room temperature. After washing, peroxidase-conjugated anti-human αTNF antibody is added. Following a 2 hour incubation period and a thorough washing, a chemiluminescent substrate is added and chemilunescence is read after 20 minutes. αTNF content in the supernatant fluid is determined with respect to a standard curve covering the 7000 to 0.7 pg/ml range.
Inhibition is characterized by the E. coli LPS concentration which elicits 50% production of α TNF during co-incubation in comparison to a control including only RPMI. This concentration increases as product inhibition activity becomes stronger. Knowing inhibition values of α TNF production, this concentration is given by calculating 100-(αTNF production induced by product and LPS)/(αTNF production induced by LPS alone)*100. From these inhibition data, concentration is determined by linear regression along the line segment which joins 2 LPS dilutions giving approx. 50% inhibition.
Product ability to inhibit α TNF production in mononuclear cells in response to LPS is further characterized by maximum inhibition. […] Results are calculated from a representative experience using all products.

≈ marks a conversion by molar mass, not a printed value.

In the test with bone marrow stem cells, `CCCCCCCCCCCC(=O)O[C@H](CCCCCCCCCCC)CC(=O)N[C@H](CC(=O)O)C(=O)NCCC[C@H](COC(=O)CCCCCNC(=O)CCC(=O)OC[C@@H]1C=C[C@H](n2cc(C)c(=O)[nH]c2=O)O1)NC(=O)C[C@H](O)CCCCCCCCCCC` [OM-197-MC-AC-Succ-d4T] displayed a Max amplitude of 1.40 O.D, a Min amplitude of 0.80 O.D, a Max concentration of 50 µg/mL and an EC50 conc of 25.4 µg/mL (≈ 19.7 µM). The molecule also returned a Min concentration in the test on bone marrow stem cells of 2.81 µg/mL. The “α TNF produced” value in test [1] (product 1 μg/ml) was found to be 0 pg/mL. For the same molecule, the “α TNF produced” value in test [1] (product 10 μg/ml) came out at 40 pg/mL. The “α TNF produced” value in test [1] (product 100 μg/ml) came out at 52 pg/mL. Also, in test [2], the “max. Inhibition” value stood at 100%, the “50% inhibition LPS” value was determined as 0.64 µg/mL and the “max. Inhibition LPS” value was 0.00016 µg/mL.
In the test on bone marrow stem cells, `CCCCCCCCCCCC(=O)O[C@H](CCCCCCCCCCC)CC(=O)N[C@H](CC(=O)N[C@@H](CCCCN)C(=O)O)C(=O)NCCC[C@H](COC(=O)CCCCCN)NC(=O)C[C@H](O)CCCCCCCCCCC` [OM-197-Lys-AC] returned a Max amplitude of more than 2.02 O.D, a Min amplitude of 0.80 O.D, a Max concentration of more than 50 µg/mL and an EC50 conc of more than 14.6 µg/mL. The molecule also returned a Min concentration with bone marrow stem cells of 0.90 µg/mL. In test [1] (product 1 μg/ml), the “α TNF produced” value amounted to 232 pg/mL. Moreover, in test [1] (product 10 μg/ml), the “α TNF produced” value came to 184 pg/mL. For the same molecule, the “α TNF produced” value in test [1] (product 100 μg/ml) turned out to be 256 pg/mL. Besides, in test [2], the “max. Inhibition” value is 100%, the “50% inhibition LPS” value was more than 1 µg/mL and the “max. Inhibition LPS” value was determined as 0.001 µg/mL.
In the test with bone marrow stem cells, `CCCCCCCCCCCC(=O)O[C@H](CCCCCCCCCCC)CC(=O)N[C@H](CC(=O)O)C(=O)NCCC[C@H](COC(=O)CCCCCO)NC(=O)C[C@H](O)CCCCCCCCCCC` [OM-197-MC-FV7, N—[(R)-3-dodecanoyloxytetradecanoylamino]-D-aspartic acid, α-N-{(4R)-5-hydroxy-4-[(R)-3-hydroxytetradecanoylamino]pentyl}amide 5-O-(6-hydroxyhexanoate)] showed a Max amplitude of more than 1.83 O.D, a Min amplitude of 0.80 O.D, a Max concentration of more than 100 µg/mL and an EC50 conc of more than 33.1 µg/mL. In the test with bone marrow stem cells, this molecule displayed a Min concentration of 6.58 µg/mL. Besides, the “α TNF produced” value in test [1] (product 1 μg/ml) was found to be 0 pg/mL. In test [1] (product 10 μg/ml), the “α TNF produced” value amounted to 80 pg/mL. Moreover, the “α TNF produced” value in test [1] (product 100 μg/ml) amounted to 76 pg/mL. In test [2], the “max. Inhibition” value stood at 100%, the “50% inhibition LPS” value was more than 1 µg/mL and the “max. Inhibition LPS” value is 0.00035 µg/mL.
Turning to `CCCCCCCCCCC[C@@H](O)CC(=O)N[C@H](CCCNC(=O)[C@@H](CC(=O)O)NC(C)=O)COC(=O)CCCCCN` [OM-197-N′C2-MC-AC, N-acetyl-D-aspartic acid, α-N-{(4R)-5-(6-aminohexanoyloxy)-4-[(R)-3-hydroxytetradecanoylamino]-pentyl}amide], in the test on bone marrow stem cells, the Max amplitude is reported as 0.75 O.D, the Min amplitude is listed as 0.80/nd O.D and the Max concentration was determined as 1.56 µg/mL. Besides, in test [1] (product 1 μg/ml), the “α TNF produced” value is 0 pg/mL. Further, in test [1] (product 10 μg/ml), the “α TNF produced” value came out at 0 pg/mL. Besides, in test [1] (product 100 μg/ml), the “α TNF produced” value stood at 0 pg/mL. Moreover, the “α TNF production” value in test [1] (up to 100 μg/ml) was “do not induce any αTNF production”. In test [2], the “max. Inhibition” value was 100%, the “50% inhibition LPS” value is 0.0003 µg/mL and the “max. Inhibition LPS” value was found to be 0.00001 µg/mL.
In the case of `CCCCCCCCCCCC(=O)O[C@H](CCCCCCCCCCC)CC(=O)N[C@H](CC(=O)N[C@@H](CC(=O)O)C(=O)O)C(=O)NCCC[C@H](CO)NC(=O)C[C@H](O)CCCCCCCCCCC` [OM-197-Asp, N—[(R)-3-dodecanoyloxytetradecanoyl]-D-aspartic acid, α-N-{(4R)-5-hydroxy-4-[(R)-3-hydroxytetradecanoylamino]-pentyl}Amide β-N-[(1S)-1,2-Dicarboxyethyl]Amide], in the test on bone marrow stem cells, the Max amplitude is 1.22 O.D, the Min amplitude is on record as 0.80 O.D, the Max concentration was determined as 25 µg/mL and the EC50 conc was found to be 5.0 µg/mL (≈ 5.08 µM). Besides, the Min concentration in the test with bone marrow stem cells was determined as 1.89 µg/mL. In test [1] (product 1 μg/ml), the “α TNF produced” value came to 0 pg/mL. Moreover, the “α TNF produced” value in test [1] (product 10 μg/ml) came out at 28 pg/mL. Moreover, the “α TNF produced” value in test [1] (product 100 μg/ml) is 80 pg/mL. Moreover, in test [2], the “max. Inhibition” value is recorded as 100%, the “50% inhibition LPS” value was more than 1 µg/mL and the “max. Inhibition LPS” value stood at 0.00036 µg/mL.
In the test on bone marrow stem cells, `CCCCCCCCCCCC(=O)O[C@H](CCCCCCCCCCC)CC(=O)NC(CCOP(=O)(O)O)C(=O)NCCCC(COC(=O)CCCCCO)NC(=O)C[C@H](O)CCCCCCCCCCC` (stereo partly drawn) [OM-197-FV8, 3-[(R)-3-dodecanoyloxytetradecanoylamino]-4-oxo-5-aza-9-[(R)-3-hydroxytetradecanoylamino]-decan-1,10-diol 1-dihydrogenphosphate 10-(6-hydroxyhexanoate)] had a Max amplitude of 1.07 O.D, a Min amplitude of 0.80 O.D, a Max concentration of 25 µg/mL and an EC50 conc of 1.8 µg/mL (≈ 1.72 µM). The molecule also registered a Min concentration in the test with bone marrow stem cells of 1.24 µg/mL. Further, the “α TNF produced” value in test [1] (product 1 μg/ml) was 12 pg/mL. For the same molecule, the “α TNF produced” value in test [1] (product 10 μg/ml) came to 100 pg/mL. For the same molecule, the “α TNF produced” value in test [1] (product 100 μg/ml) turned out to be 252 pg/mL. Moreover, in test [2], the “max. Inhibition” value was determined as 100%, the “50% inhibition LPS” value is more than 1 µg/mL and the “max. Inhibition LPS” value is 0.0033 µg/mL.
